Data: patent US9505726B2, “Substituted biphenyl amides as P2X3 and P2X2/3 antagonists” (Roche Palo Alto LLC, priority 2009, dated 2016)

Molecular target: T1, rat P2X3 receptor (Rattus norvegicus, UniProt P49654)
T1 construct: expressed in transfected cells; host or cells: CHO-K1
T1 sequence (P49654 1-397): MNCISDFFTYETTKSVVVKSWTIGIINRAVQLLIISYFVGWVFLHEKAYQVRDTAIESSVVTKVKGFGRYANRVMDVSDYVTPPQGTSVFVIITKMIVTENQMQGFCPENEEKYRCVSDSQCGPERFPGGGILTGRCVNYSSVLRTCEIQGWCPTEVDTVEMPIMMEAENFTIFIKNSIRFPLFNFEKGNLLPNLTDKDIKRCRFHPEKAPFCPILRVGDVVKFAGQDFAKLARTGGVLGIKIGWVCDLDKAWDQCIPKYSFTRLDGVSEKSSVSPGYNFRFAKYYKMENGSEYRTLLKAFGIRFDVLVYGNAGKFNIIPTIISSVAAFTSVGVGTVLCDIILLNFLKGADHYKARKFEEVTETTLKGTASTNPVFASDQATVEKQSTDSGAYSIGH
Experiment: P2X3 FLIPR (Fluorometric Imaging Plate Reader) assay
Type: cell-based
Conditions: CHO-K1 cells transfected with cloned rat P2X3; agonist α,β-meATP 1 μM; Fluo-3 AM calcium fluorescence
Procedure: CHO-K1 cells were transfected with cloned rat P2X3 or human P2X2/3 receptor subunits and passaged in flasks. 18-24 hours before the FLIPR experiment, cells were released from their flasks, centrifuged, and resuspended in nutrient medium at 2.5×10^5 cells/ml. The cells were aliquoted into black-walled 96-well plates at a density of 50,000 cells/well and incubated overnight in 5% CO2 at 37° C. On the day of the experiment, cells were washed in FLIPR buffer (calcium- and magnesium-free Hank's balanced salt solution, 10 mM HEPES, 2 mM CaCl2, 2.5 mM probenecid; FB). Each well received 100 μl FB and 100 μl of the fluorescent dye Fluo-3 AM [2 μM final conc.]. After a 1 hour dye loading incubation at 37° C., the cells were washed 4 times with FB, and a final 75 μl/well FB was left in each well.
Test compounds (dissolved in DMSO at 10 mM and serially diluted with FB) or vehicle were added to each well (25 μl of a 4× solution) and allowed to equilibrate for 20 minutes at room temperature. The plates were then placed in the FLIPR and a baseline fluorescence measurement (excitation at 488 nm and emission at 510-570 nm) was obtained for 10 seconds before a 100 μl/well agonist or vehicle addition. The agonist was a 2X solution of α,β-meATP producing a final concentration of 1 μM (P2X3) or 5 μM (P2X2/3). Fluorescence was measured for an additional 2 minutes at 1 second intervals after agonist addition. A final addition of ionomycin (5 μM, final concentration) was made to each well of the FLIPR test plate to establish cell viability and maximum fluorescence of dye-bound cytosolic calcium. Peak fluorescence in response to the addition of α,β-meATP (in the absence and presence of test compounds) was measured and inhibition curves generated using nonlinear regression. PPADS, a standard P2X antagonist, was used as a positive control.

Row | P2X3 (pIC50 values for the P2X3 receptor) | Compound
1 | 6.31 | COCC(C)NC(=O)c1cc(NC(=O)c2cc(C)cs2)cc(-c2ccc(C)cc2)c1 (stereo not drawn) [Compound 1, 4-Methyl-thiophene-2-carboxylic acid [5-(2-methoxy-1-methyl-ethylcarbamoyl)-4′-methyl-biphenyl-3-yl]-amide]
2 | 5.2 | COCC(C)NC(=O)c1cc(NC(=O)c2ccc(C)s2)cc(-c2ccc(C)cc2)c1 (stereo not drawn) [Compound 2, 5-Methyl-thiophene-2-carboxylic acid [5-(2-methoxy-1-methyl-ethylcarbamoyl)-4′-methyl-biphenyl-3-yl]-amide]
3 | 5.66 | COCC(C)NC(=O)c1cc(NC(=O)c2ccco2)cc(-c2ccc(C)cc2)c1 (stereo not drawn) [Compound 3, Furan-2-carboxylic acid [5-(2-methoxy-1-methyl-ethylcarbamoyl)-4′-methyl-biphenyl-3-yl]-amide]
4 | 5.51 | COCC(C)NC(=O)c1cc(NC(=O)c2cccs2)cc(-c2ccc(C)cc2)c1 (stereo not drawn) [Compound 4, Thiophene-2-carboxylic acid [5-(2-methoxy-1-methyl-ethylcarbamoyl)-4′-methyl-biphenyl-3-yl]-amide]
5 | 5.69 | COCC(C)NC(=O)c1cc(NC(=O)c2ccccc2)cc(-c2ccc(C)cc2)c1 (stereo not drawn) [Compound 5, 5-Benzoylamino-4′-methyl-biphenyl-3-carboxylic acid (2-methoxy-1-methyl-ethyl)-amide]
6 | 5.62 | COCC(C)NC(=O)c1cc(NC(=O)c2ccccn2)cc(-c2ccc(C)cc2)c1 (stereo not drawn) [Compound 6, Pyridine-2-carboxylic acid [5-(2-methoxy-1-methyl-ethylcarbamoyl)-4′-methyl-biphenyl-3-yl]-amide]
7 | 5.49 | COCC(C)NC(=O)c1cc(NC(=O)C2CCCCC2)cc(-c2ccc(C)cc2)c1 (stereo not drawn) [Compound 7, 5-(Cyclohexanecarbonyl-amino)-4′-methyl-biphenyl-3-carboxylic acid (2-methoxy-1-methyl-ethyl)-amide]
8 | 5.35 | COCC(C)NC(=O)c1cc(NC(=O)c2ccc(C)cc2C)cc(-c2ccc(C)cc2)c1 (stereo not drawn) [Compound 8, 5-(2,4-Dimethyl-benzoylamino)-4′-methyl-biphenyl-3-carboxylic acid (2-methoxy-1-methyl-ethyl)-amide]
9 | 5.44 | COCC(C)NC(=O)c1cc(NC(=O)c2ccc(F)cc2Cl)cc(-c2ccc(C)cc2)c1 (stereo not drawn) [Compound 9, 5-(2-Chloro-4-fluoro-benzoylamino)-4′-methyl-biphenyl-3-carboxylic acid (2-methoxy-1-methyl-ethyl)-amide]
10 | 5.87 | COCC(C)NC(=O)c1cc(NC(=O)c2ccc(C(F)(F)F)cc2Cl)cc(-c2ccc(C)cc2)c1 (stereo not drawn) [Compound 10, 5-(2-Chloro-4-trifluoromethyl-benzoylamino)-4′-methyl-biphenyl-3-carboxylic acid (2-methoxy-1-methyl-ethyl)-amide]
11 | 5.56 | COCC(C)NC(=O)c1cc(NC(=O)c2cscn2)cc(-c2ccc(C)cc2)c1 (stereo not drawn) [Compound 11, Thiazole-4-carboxylic acid [5-(2-methoxy-1-methyl-ethylcarbamoyl)-4′-methyl-biphenyl-3-yl]-amide]
12 | 5.59 | COCC(C)NC(=O)c1cc(NC(=O)c2c(-c3ccccc3)noc2C)cc(-c2ccc(C)cc2)c1 (stereo not drawn) [Compound 12, 5-Methyl-3-phenyl-isoxazole-4-carboxylic acid [5-(2-methoxy-1-methyl-ethylcarbamoyl)-4′-mcthyl-biphenyl-3-yl]-amide]
13 | 5.93 | COCC(C)NC(=O)c1cc(NC(=O)c2nc(C)oc2C)cc(-c2ccc(C)cc2)c1 (stereo not drawn) [Compound 13, 2,5-Dimethyl-oxazole-4-carboxylic acid [5-(2-methoxy-1-methyl-ethylcarbamoyl)-4′-methyl-biphenyl-3-yl]-amide]
14 | 5.35 | COCC(C)NC(=O)c1cc(NC(=O)c2sccc2C)cc(-c2ccc(C)cc2)c1 (stereo not drawn) [Compound 14, 3-Methyl-thiophene-2-carboxylic acid [5-(2-methoxy-1-methyl-ethylcarbamoyl)-4′-methyl-biphenyl-3-yl]-amide]
15 | 5.34 | COCC(C)NC(=O)c1cc(NC(=O)c2cc(C)nn2C)cc(-c2ccc(C)cc2)c1 (stereo not drawn) [Compound 15, 2,5-Dimethyl-2H-pyrazole-3-carboxylic acid [5-(2-methoxy-1-methyl-ethylcarbamoyl)-4′-methyl-biphenyl-3-yl]-amide]
16 | 5.4 | COCC(C)NC(=O)c1cc(NC(=O)c2cc(C)on2)cc(-c2ccc(C)cc2)c1 (stereo not drawn) [Compound 16, 5-Methyl-isoxazole-3-carboxylic acid [5-(2-methoxy-1-methyl-ethylcarbamoyl)-4′-methyl-biphenyl-3-yl]-amide]
17 | 5.87 | COCC(C)NC(=O)c1cc(NC(=O)c2cscc2OC)cc(-c2ccc(C)cc2)c1 (stereo not drawn) [Compound 17, 4-Methoxy-thiophene-3-carboxylic acid [5-(2-methoxy-1-methyl-ethylcarbamoyl)-4′-methyl-biphenyl-3-yl]-amide]
18 | 5.35 | CCC(=O)N(C)c1cc(C(=O)NC(C)COC)cc(-c2ccc(C)cc2)c1 (stereo not drawn) [Compound 18, 4′-Methyl-5-(methyl-propionyl-amino)-biphenyl-3-carboxylic acid (2-methoxy-1-methyl-ethyl)-amide]
19 | 6.88 | CCC(=O)N(C)c1cc(C(=O)N[C@H](C)CN2CCOCC2)cc(-c2ccc(C)cc2)c1 [Compound 19, 4′-Methyl-5-(methyl-propionyl-amino)-biphenyl-3-carboxylic acid ((R)-1-methyl-2-morpholin-4-yl-ethyl)-amide]
20 | 6.05 | CC(=O)N(C)c1cc(C(=O)NC(C)c2cnccn2)cc(-c2ccc(C)cc2)c1 (stereo not drawn) [Compound 20, 5-(Acetyl-methyl-amino)-4′-methyl-biphenyl-3-carboxylic acid (1-pyrazin-2-yl-ethyl)-amide]
21 | 7.28 | CCN(C(C)=O)c1cc(C(=O)NC(C)c2cnccn2)cc(-c2ccc(C)cc2)c1 (stereo not drawn) [Compound 21, 5-(Acetyl-ethyl-amino)-4′-methyl-biphenyl-3-carboxylic acid (1-pyrazin-2-yl-ethyl)-amide]
22 | 6.69 | COCC(=O)N(C)c1cc(C(=O)NC(C)c2cnccn2)cc(-c2ccc(C)cc2)c1 (stereo not drawn) [Compound 22, 5-[(2-Methoxy-acetyl)-methyl-amino]-4′-methyl-biphenyl-3-carboxylic acid (1-pyrazin-2-yl-ethyl)-amide]
23 | 6.5 | CCN(C(=O)COC)c1cc(C(=O)NC(C)c2cnccn2)cc(-c2ccc(C)cc2)c1 (stereo not drawn) [Compound 23, 5-[Ethyl-(2-methoxy-acetyl)-amino]-4′-methyl-biphenyl-3-carboxylic acid (1-pyrazin-2-yl-ethyl)-amide]
24 | 6.31 | CC(=O)N(c1cc(C(=O)NC(C)c2cnccn2)cc(-c2ccc(C)cc2)c1)c1ccncn1 (stereo not drawn) [Compound 24, 5-(Acetyl-pyrimidin-4-yl-amino)-4′-methyl-biphenyl-3-carboxylic acid (1-pyrazin-2-yl-ethyl)-amide]
